Consider 14 compounds from ChEMBL document CHEMBL1154019, “Sulfonamides with the N-alkyl-N'-dialkylguanidine moiety as 5-HT7 receptor ligands” (Bioorg Med Chem Lett, 2009).

The target of test [1] is T1, 5-hydroxytryptamine receptor 1A (Rattus norvegicus, UniProt P19327).
T1 sequence (P19327 whole entry): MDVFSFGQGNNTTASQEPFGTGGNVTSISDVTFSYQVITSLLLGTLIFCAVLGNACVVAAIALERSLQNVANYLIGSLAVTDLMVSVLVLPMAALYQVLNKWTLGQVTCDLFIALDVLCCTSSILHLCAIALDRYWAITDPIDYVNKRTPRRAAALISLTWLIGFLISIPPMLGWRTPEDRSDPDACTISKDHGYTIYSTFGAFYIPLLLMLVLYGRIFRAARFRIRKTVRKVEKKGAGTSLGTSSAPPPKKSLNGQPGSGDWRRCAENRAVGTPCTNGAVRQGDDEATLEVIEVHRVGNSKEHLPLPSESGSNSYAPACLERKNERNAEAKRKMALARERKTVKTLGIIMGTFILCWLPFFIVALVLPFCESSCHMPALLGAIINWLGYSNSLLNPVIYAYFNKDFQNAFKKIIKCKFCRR
As to the kind of experiment: Binding affinity to 5HT1A receptor in rat hippocampus. It is filed as tissue-based.

Test [2] has as its target 5-hydroxytryptamine receptor 2A (Rattus norvegicus, UniProt P14842). The test is described as follows: Binding affinity to 5HT2A receptor in rat cortex. It is filed as tissue-based.
For test [3], the target named is 5-hydroxytryptamine receptor 7 (Homo sapiens, UniProt P34969). The test is described as follows: Binding affinity to human cloned 5HT7 receptor expressed in HEK293 cells. It is filed as cell-based.
5-hydroxytryptamine receptor 7, sequence (P34969 whole entry): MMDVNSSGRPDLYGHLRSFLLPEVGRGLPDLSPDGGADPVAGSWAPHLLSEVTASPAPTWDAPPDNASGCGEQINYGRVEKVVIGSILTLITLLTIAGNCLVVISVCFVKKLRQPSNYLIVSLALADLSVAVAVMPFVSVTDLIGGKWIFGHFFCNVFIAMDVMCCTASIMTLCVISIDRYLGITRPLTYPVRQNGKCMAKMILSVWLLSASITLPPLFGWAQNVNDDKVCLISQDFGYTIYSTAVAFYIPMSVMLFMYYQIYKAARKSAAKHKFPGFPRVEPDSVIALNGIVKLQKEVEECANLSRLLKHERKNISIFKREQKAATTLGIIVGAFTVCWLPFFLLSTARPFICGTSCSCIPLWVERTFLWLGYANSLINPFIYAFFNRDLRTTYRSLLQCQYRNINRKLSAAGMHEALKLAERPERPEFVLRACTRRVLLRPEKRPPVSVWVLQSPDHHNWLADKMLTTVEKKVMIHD
A short description of test [4]: Selectivity of Ki for human 5HT7 receptor to Ki for rat 5HT1A.

5-hydroxytryptamine receptor 2A, sequence (P14842 whole entry): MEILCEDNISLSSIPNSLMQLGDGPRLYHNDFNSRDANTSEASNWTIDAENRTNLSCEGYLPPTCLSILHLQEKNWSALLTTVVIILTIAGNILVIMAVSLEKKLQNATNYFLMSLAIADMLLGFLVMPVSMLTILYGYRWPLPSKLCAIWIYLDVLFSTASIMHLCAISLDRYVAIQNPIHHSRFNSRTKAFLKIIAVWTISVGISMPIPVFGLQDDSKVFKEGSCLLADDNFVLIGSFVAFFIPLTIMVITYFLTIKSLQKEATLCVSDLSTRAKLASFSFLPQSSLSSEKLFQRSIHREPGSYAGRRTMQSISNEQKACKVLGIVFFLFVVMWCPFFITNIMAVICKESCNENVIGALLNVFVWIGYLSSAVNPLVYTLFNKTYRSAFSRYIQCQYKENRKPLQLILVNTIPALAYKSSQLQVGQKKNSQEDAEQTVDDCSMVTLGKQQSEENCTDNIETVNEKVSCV

As a reminder, the Ki is the dissociation constant of the complex between target and ligand, obtained from inhibition or displacement. Read a low Ki as tighter binding. As to `COc1ccccc1N1CCN(C(=O)NC(=N)NCc2cccc3ccccc23)CC1`, the values for the Ki in test [1] and in test [2] were 0.52 µM and 0.15 µM, respectively.
With `COc1ccccc1N1CCN(C(N)=NCCNS(=O)(=O)c2cccc(C)c2)CC1`, the Ki in test [1] amounted to 10.4 µM; in test [2], 1.15 µM; in test [3], 0.339 µM.
As to `COc1ccccc1N1CCN(C(=N)NCCCCNS(=O)(=O)c2ccc(C)cc2)CC1`, the figures for the Ki in test [1], in test [2] and in test [3] were 10.2 µM, 0.34 µM and 0.14 µM, respectively.
Turning to `O=S(=O)(c1ccccc1)C1(CCCN2CCc3ccccc3C2)CCC1`, the figures for the inhibition constant (Ki) in test [1] and in test [2] were 0.035 µM and 0.065 µM, respectively.
As to `CCOc1ccccc1CNC(=N)NC(=O)NC`, the inhibition constant (Ki) was more than 4 µM in test [1], 0.4 µM in test [2] and 0.049 µM in test [3].
On to `CC1CCN(CCC2CCCN2S(=O)(=O)c2cccc(O)c2)CC1` (single isomer, unassigned), for which the Ki in test [1] and in test [2] was more than 10 µM throughout.
As for `COc1ccccc1N1CCN(C(N)=NCCCNS(=O)(=O)c2cccc3ccccc23)CC1`, the figures for the Ki in test [1], in test [2] and in test [3] were 9.86 µM, 0.94 µM and 0.195 µM, respectively.
The corresponding values for `Cc1cccc(S(=O)(=O)NCCCCN=C(N)N2CCC(c3ccccc3)CC2)c1` are 12 µM, 0.77 µM and 0.15 µM.
The like results for `Cc1cccc(S(=O)(=O)NCCN=C(N)N2CCC(c3ccccc3)CC2)c1` were, in that order, 4.55 µM, 0.16 µM and 0.161 µM.
The like results for `Cc1cccc(S(=O)(=O)NCCN=C(N)N2CCC(C)CC2)c1` were, in that order, 1.1 µM, 0.148 µM and 0.177 µM.
In the case of `NC(=NCCCCNS(=O)(=O)c1cccc2ccccc12)N1CCc2ccccc2C1`, the inhibition constant Ki in test [1] was 2.08 µM; in test [2], 0.195 µM; in test [3] it was 0.198 µM.
The like results for `COc1ccccc1N1CCN(CCCNS(=O)(=O)c2ccc3ccccc3c2)CC1` were, in that order, 0.0046 µM, 0.085 µM and 0.02 µM.
As to `COc1ccccc1N1CCN(C(=N)NCCNS(=O)(=O)c2cccc(C)c2)CC1`, in test [4], the Ratio Ki came to 31.
In the case of `Cc1cccc(S(=O)(=O)NCCCN=C(N)N2CCC(c3ccccc3)CC2)c1`, the values for the Ki in test [1], in test [2] and in test [3] were 17.6 µM, 1.25 µM and 0.276 µM, respectively.
